The record followed here is patent US11653650B2, “Fungicide composition and method for controlling disease of crop” (ISHIHARA SANGYO KAISHA, LTD., priority 2017, dated 2023).

Where two headings read alike, the source gives them in different places.

Assay [1] has as its system Apple anthracnose (apple bitter rot) fungus, Colletotrichum acutatum. Kind of assay: Inhibitory effect test for hyphal elongation on PDA, 20° C., 2 days. Type of assay: cell-based. Conditions: read-out: Inhibition rate (%). Here is the method: (§1) Test Example 5: Inhibitory Effect Test for Hyphal Elongation (Apple Anthracnose (Apple Bitter Rot) Fungus, Colletotrichum acutatum) A fungal flora (diameter: 4 mm) obtained by pre-cultivation was transplanted on PDA containing a given concentration of a chemical and then cultured at room temperature of 20° C. for 2 days, followed by measuring the diameter of the grown flora in the same manner as described in Test Example 3 to determine the hyphal elongation, inhibition rate. In addition, theoretical values (of the hyphal elongation inhibition rate) were calculated according to the Colby's calculation formula based on the above determined hyphal elongation inhibition rate, and presented in parenthesis in the table.

Assay [2] relates to pear scab (Japanese pear scab). Nature of the assay: Effect test against pear scab (Japanese pear scab), effect on leaves, sprayed adult pear trees. Type of assay: in vivo, pear (cultivar: Housui). As to conditions: sprayed four times. As for the experimental part:
Test Example 1: Effect Test Against Pear Scab (Japanese Pear Scab) (Effect on Leaves) A given amount of a chemical was sprayed on adult trees of pear (cultivar: Housui) with a pressurized sprayer in an amount sufficient to drip from the leaves. The spraying was performed four times in total at intervals of 8 to 10 days, about 50 leaves per area were investigated about the presence or absence of the onset of the disease days after the final spraying, and the ratio of the leaves with the onset of the disease and the disease control value were calculated (in triplicate). In addition, the theoretical value (of the disease control value) by mixing was also calculated according to the Colby's formula. Disease control value=(1−a/b)×100 wherein a: Mean ratio of leaves with the onset of the disease in the treated area, b: Mean ratio of leaves with the onset of the disease in the untreated area; Colby's formula=(X+Y)−XY/100 wherein X: Disease control value when using isofetamid alone, Y: Disease control value when using mandestrobin alone. When the actually measured value is higher than the theoretical value, the fungicide composition of the present invention has a synergistic effect on pear scab (Japanese pear scab).

The subject of assay [3] is pear scab (Japanese pear scab). Nature of the assay: Effect test against pear scab (Japanese pear scab), effect on fruits, sprayed adult pear trees. In kind it is in vivo, pear (cultivar: Housui). As to conditions: 8 days after the final spraying. Here is the method:
Test Example 2: Effect Test Against Pear Scab (Japanese Pear Scab) (Effect on Fruits) A given amount of a chemical was sprayed on adult trees of pear (cultivar: Housui) with a pressurized sprayer in an amount sufficient to drip from the leaves and fruits. The spraying was performed four times in total at intervals of 6 to 11 days, about 50 fruits per area were investigated about the presence or absence of the onset of the disease 8 days after the final spraying, and the ratio of the fruits with the onset of the disease and the disease control value were calculated (in triplicate). In addition, the theoretical value (of the disease control value) by mixing was also calculated according to the Colby's formula. Disease control value=(1−a/b)×100 wherein a: Mean ratio of fruits with the onset of the disease in the treated area, b: Mean ratio of fruits with the onset of the disease in the untreated area.

The subject of assay [4] is Pear scab (Japanese pear scab) fungus, Venturia nashicola. Kind of assay: Inhibitory effect test for hyphal elongation on PDA, 20° C., 25 days. In kind it is cell-based. As to conditions: read-out: Inhibition rate (%). As for the experimental part: Test Example 3: Inhibitory Effect Test for Hyphal Elongation (Pear Scab (Japanese Pear Scab) Fungus, Venturia nashicola) A fungal flora (diameter: 4 mm) obtained by pre-cultivation was transplanted on PDA (potato dextrose agar medium) containing a given concentration of a chemical and then cultured at room temperature of 20° C. for 25 days, followed by measuring the diameter (mm) of the grown flora to determine the hyphal elongation inhibition rate. In addition, theoretical values (of the hyphal elongation inhibition rate) were calculated according to the Colby's calculation formula based on the above determined hyphal elongation inhibition rate, and presented in parenthesis in the table. Inhibition rate=(1−a/b)×100 wherein a: “Mean diameter (mm) of flora in the treated area”—4, b: “Mean diameter (mm) of flora in the untreated area”—4 Colby's formula=(X+Y)−XY/100 X: Inhibition rate when using isofetamid alone Y: Inhibition rate when using mandestrobin alone. When the experimental value is higher than the theoretical value, the fungicide composition of the present invention has a synergistic effect on pear scab (Japanese pear scab) fungus.

Assay [5] has as its system Apple anthracnose (apple bitter rot) fungus, Colletotrichum gloeosporioides. Kind of assay: Inhibitory effect test for hyphal elongation on PDA, 20° C., 2 days. Type of assay: cell-based. As to conditions: read-out: Inhibition rate (%). Here is the method:
as §1, with “4:” for “5:”, “gloeosporioides)” for “acutatum)”, “elongation” for “elongation,”

Setting [6] is: Mandestrobin 0.01 ppm alone (Isofetamid 0 ppm).
Where [7] appears, read: Mandestrobin 0.1 ppm alone (Isofetamid 0 ppm).
Where [8] appears, read: Mandestrobin 1 ppm alone (Isofetamid 0 ppm).
The mark [9] stands for this setting: Mandestrobin 10 ppm alone (Isofetamid 0 ppm).
[10] abbreviates: Isofetamid 0.01 ppm alone (Mandestrobin 0 ppm).
[11] abbreviates: Isofetamid 0.1 ppm alone (Mandestrobin 0 ppm).
Where [12] appears, read: Isofetamid 1 ppm alone (Mandestrobin 0 ppm).
Where [13] appears, read: Isofetamid 10 ppm alone (Mandestrobin 0 ppm).

As a reminder, the inhibition is the percentage by which the read-out fell short of the control. Consider `CNC(=O)C(OC)c1ccccc1COc1cc(C)ccc1C` (racemic) [Mandestrobin, (RS)-2-methoxy-N-methyl-2-[α-(2,5-xylyloxy)-o-tolyl]acetamide], for which the inhibition at 0.01 ppm was determined as 0% in assay [1] (setting [6]), 0% in assay [4] (setting [6]) and 1.9% in assay [5] (setting [6]). Besides, the inhibition at 0.1 ppm in assay [1] (setting [7]) was found to be 0%; in assay [4] (setting [7]), 12.8%; in assay [5] (setting [7]), 3.8%. Besides, the inhibition at 1 ppm in assay [1] (setting [8]) turned out to be 42.6%; in assay [4] (setting [8]), 27.7%; in assay [5] (setting [8]) it was 14.1%. In addition, the inhibition at 10 ppm in assay [1] (setting [9]) was found to be 55.4%; in assay [4] (setting [9]), 44.7%; in assay [5] (setting [9]), 33.3%. Besides, the Disease control value in assay [2] (Mandestrobin 70 ppm) came out at 65.9; in assay [2] (Mandestrobin 140 ppm), 74.9; in assay [3] (Mandestrobin 70 ppm), 77.5; in assay [3] (Mandestrobin 100 ppm), 90.1; in assay [3] (Mandestrobin 140 ppm) it was 93.4. Further, the “Ratio of leaves with onset of disease (%)” value in assay [2] (Mandestrobin 70 ppm) is reported as 31.7%; in assay [2] (Mandestrobin 140 ppm) it was 23.3%. Besides, the entries for the “Ratio of fruits with onset of disease (%)” value in assay [3] (Mandestrobin 70 ppm), in assay [3] (Mandestrobin 100 ppm) and in assay [3] (Mandestrobin 140 ppm) were 10.3%, 4.5% and 3.0%, respectively.
On to `Cc1cc(OC(C)C)ccc1C(=O)C(C)(C)NC(=O)c1sccc1C` [Isofetamid, N-[1,1-dimethyl-2-(4-isopropoxy-o-tolyl)-2-oxoethyl]-3-methylthiophene-2-carboxamide], for which the inhibition at 0.01 ppm in assay [1] (setting [10]) was 6.9%; in assay [4] (setting [10]), 0%; in assay [5] (setting [10]), 0%. Further, the inhibition at 0.1 ppm was found to be 3% in assay [1] (setting [11]), 8.5% in assay [4] (setting [11]) and 0% in assay [5] (setting [11]). Besides, the results for the inhibition at 1 ppm in assay [1] (setting [12]), in assay [4] (setting [12]) and in assay [5] (setting [12]) were 0%, 49.6% and 0%, respectively. Besides, the inhibition at 10 ppm in assay [1] (setting [13]) was 24.8%; in assay [4] (setting [13]), 100%; in assay [5] (setting [13]), 2.6%. The Disease control value is given as 66.3 in assay [2] (Isofetamid 90 ppm); 56.4 in assay [2] (Isofetamid 190 ppm); 83.4 in assay [3] (Isofetamid 93 ppm); 77.5 in assay [3] (Isofetamid 134 ppm); 62.3 in assay [3] (Isofetamid 187 ppm). Moreover, the results for the “Ratio of leaves with onset of disease (%)” value in assay [2] (Isofetamid 90 ppm) and in assay [2] (Isofetamid 190 ppm) were 31.3% and 40.5%, respectively. For the same compound, the “Ratio of fruits with onset of disease (%)” value in assay [3] (Isofetamid 93 ppm) is on record as 7.6%; in assay [3] (Isofetamid 134 ppm), 10.3%; in assay [3] (Isofetamid 187 ppm), 17.2%.
